These molecules were tested against T1, hGPR120 (Homo sapiens, UniProt Q5NUL3) (assay: Measurement of activity of GPR120 agonist (cell-based calcium fluorescence assay)). Conditions: CHO-K1 cells expressing Ga16 and hGPR120, Calcium 5 dye fluorescence; activity class; read-out: EC50.
T1 construct: expressed in transfected cells; host or cells: CHO-K1
T1 sequence (Q5NUL3 1-361): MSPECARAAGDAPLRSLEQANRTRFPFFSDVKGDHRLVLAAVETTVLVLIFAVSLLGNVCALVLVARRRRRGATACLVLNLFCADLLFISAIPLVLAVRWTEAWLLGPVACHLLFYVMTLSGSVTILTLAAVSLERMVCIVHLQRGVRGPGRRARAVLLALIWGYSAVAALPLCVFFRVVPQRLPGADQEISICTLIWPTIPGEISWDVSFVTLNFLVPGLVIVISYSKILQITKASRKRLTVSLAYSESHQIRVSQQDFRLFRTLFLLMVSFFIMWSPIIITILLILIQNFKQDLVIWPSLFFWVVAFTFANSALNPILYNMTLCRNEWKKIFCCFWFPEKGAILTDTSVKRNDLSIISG
Procedure, shortened: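 CHO-K1 cells co-expressing Gα16 and hGPR120, plated 18 h, loaded with Calcium 5 dye for 1 h at 37 °C, then given serially diluted agonists (final 0.5% DMSO). Fluorescence increase expressed as relative % of the 1% DMSO-only signal.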
Molecule `CC(C)Sc1cccc(-c2cc(F)c(OCCCCC(=O)O)c(F)c2)n1` [Example 237, 5-[2,6-difluoro-4-(6-isopropylsulfanyl-2-pyridyl)phenoxy]pentanoic acid] has an EC50 of less than 200 nM.
With `O=C(O)CCCOc1c(F)cc(-c2ccccc2OCC2CC2)cc1F` [Example 54, 4-(2′-cyclopropylmethoxy-3,5-difluoro-biphenyl-4-yloxy)-butyric acid] the EC50 was less than 200 nM.
`O=C(O)CCCCOc1ccc(-c2cccnc2SC2CCC2)cc1F` [Example 266, 5-[4-(2-cyclobutylsulfanyl-pyridin-3-yl)-2-fluoro-phenoxy]-pentanoic acid] showed an EC50 of less than 200 nM.
For `O=C(O)CCCSc1c(F)cc(-c2ccccc2NC2CCCC2)cc1F` [Example 161, 4-(2′-cyclopentylamino-3,5-difluoro-biphenyl-4-ylsulfanyl)-butyric acid], the EC50 was less than 200 nM.
Molecule `CC(C)Sc1ncccc1-c1ccc(SCCCC(=O)O)c(F)c1` [Example 163, 4-[2-fluoro-4-(2-isopropylsulfanyl-pyridin-3-yl)-phenylsulfanyl]butyric acid] has an EC50 of less than 200 nM.
`O=C(O)CCCOc1c(F)cc(-c2cccnc2-n2cccc2)cc1F` [Example 109, 4-[2,6-difluoro-4-(2-pyrrol-1-yl-3-pyridyl)phenoxy]butanoic acid] was tested, and the EC50 was 200 to 2000 nM.
`Cc1cnc(OC2CCCC2)c(-c2ccc(SCCCC(=O)O)cc2)c1` [Example 181, 4-[4-(2-cyclopentyloxy-5-methyl-pyridin-3-yl)-phenylsulfanyl]-butyric acid] showed an EC50 of 200 to 2000 nM.
`O=C(O)CCCSc1ccc(-c2cc(F)ccc2OC2CCCC2)cc1F` [Example 180, 4-(2′-cyclopentyloxy-3,5′-difluoro-biphenyl-4-ylsulfanyl)-butyric acid] showed an EC50 of 200 to 2000 nM.
In the case of `CC(C)Oc1ncccc1-c1ccc(SCCCC(=O)O)c(F)c1` [Example 171, 4-[2-fluoro-4-(2-isopropoxy-pyridin-3-yl)-phenylsulfanyl]-butyric acid], the EC50 is reported as less than 200 nM.
With `O=C(O)CCCOc1c(F)cc(-c2cccc(NCC3CC3)n2)cc1F` [Example 75, 4-[4-[6-(cyclopropylmethylamino)-2-pyridyl]-2,6-difluoro-phenoxy]butanoic acid] the EC50 was 200 to 2000 nM.
`O=C(O)CCCOc1c(F)cc(-c2ccccc2NC2CCC2)cc1F` [Example 89, 4-[4-[2-(cyclobutylamino)phenyl]-2,6-difluoro-phenoxy]butanoic acid] was tested, and the EC50 was less than 200 nM.
For `O=C(O)CCCSc1c(F)cc(-c2cccc(OC3CCCC3)c2)cc1F` [Example 122, 4-(3′-cyclopentyloxy-3,5-difluoro-biphenyl-4-ylsulfanyl)-butyric acid], the EC50 was less than 200 nM.
With `CCCSc1ncccc1-c1cc(F)c(OCCCCCC(=O)O)c(F)c1` [Example 64, 6-[2,6-difluoro-4-(2-propylsulfanyl-3-pyridyl)phenoxy]hexanoic acid] the EC50 was less than 200 nM.
For `CCCOc1c(F)cc(C)cc1-c1ccc(SCCCC(=O)O)c(F)c1` [Example 191, 4-(3,3′-difluoro-5′-methyl-2′-propoxy-biphenyl-4-ylsulfanyl)-butyric acid], the EC50 was less than 200 nM.
Molecule `Cc1ccc(OC2CCCC2)c(-c2ccc(SCCCC(=O)O)cc2)c1` [Example 177, 4-(2′-cyclopentyloxy-5′-methyl-biphenyl-4-ylsulfanyl)-butyric acid] has an EC50 of 200 to 2000 nM.
With `O=C(O)CCCSc1c(F)cc(-c2cccc(OC3CCC3)c2)cc1F` [Example 134, 4-(3′-cyclobutoxy-3,5-difluoro-biphenyl-4-ylsulfanyl)-butyric acid] the EC50 was less than 200 nM.
`O=C(O)CCCSc1ccc(-c2cccc(OC3CCCC3)n2)cc1` [Example 129, 4-[4-(6-cyclopentyloxy-pyridin-2-yl)-phenylsulfanyl]-butyric acid] gave an EC50 of 200 to 2000 nM.
For `O=C(O)CCCSc1ccc(-c2cccnc2OC2CCOCC2)cc1F` [Example 244, 4-{2-fluoro-4-[2-(tetrahydropyran-4-yloxy)-pyridin-3-yl]-phenylsulfanyl}-butyric acid], the EC50 was 200 to 2000 nM.
`O=C(O)CCCSc1c(F)cc(-c2cccc(SC3CCC3)n2)cc1F` [Example 158, 4-[4-(6-cyclobutylsulfanyl-pyridin-2-yl)-2,6-difluoro-phenylsulfanyl]-butyric acid] showed an EC50 of less than 200 nM.
For `O=C(O)CCCSc1ccc(-c2ccccc2NC2CCCC2)cc1` [Example 208, 4-(2′-cyclopentylamino-biphenyl-4-ylsulfanyl)-butyric acid], the EC50 was less than 200 nM.
`COc1ccc(-c2ccc(SCCCC(=O)O)c(F)c2)c(OC2CCCC2)c1` [Example 183, 4-(2′-cyclopentyloxy-3-fluoro-4′-methoxy-biphenyl-4-ylsulfanyl)-butyric acid] gave an EC50 of 200 to 2000 nM.
Work on `O=C(O)CCCSc1ccc(-c2cccnc2SC2CCCC2)cc1F` [Example 164, 4-[4-(2-cyclopentylsulfanyl-pyridin-3-yl)-2-fluoro-phenylsulfanyl]-butyric acid] yielded an EC50 of less than 200 nM.
`O=C(O)CCCSc1c(F)cc(-c2cccnc2SC2CCC2)cc1F` [Example 142, 4-[4-(2-cyclobutylsulfanyl-pyridin-3-yl)-2,6-difluoro-phenylsulfanyl]-butyric acid] gave an EC50 of less than 200 nM.
Molecule `O=C(O)CCCOc1ccc(-c2cccnc2SCC2CC2)cc1` [Example 49, 4-[4-(2-cyclopropylmethylsulfanyl-pyridin-3-yl)-phenoxy]-butyric acid] has an EC50 of 200 to 2000 nM.
`O=C(O)CCCCOc1c(F)cc(-c2cccnc2SC2CCCC2)cc1F` [Example 234, 5-[4-(2-cyclopentylsulfanyl-3-pyridyl)-2,6-difluoro-phenoxy]pentanoic acid] gave an EC50 of less than 200 nM.
Molecule `CCCOc1cccc(-c2ccc(SCCCC(=O)O)cc2)c1` [Example 127, 4-(3′-propoxy-biphenyl-4-ylsulfanyl)-butyric acid] has an EC50 of less than 200 nM.
With `Cc1cnc(OC2CCCC2)c(-c2cc(F)c(OCCCC(=O)O)c(F)c2)c1` [Example 209, 4-[4-(2-cyclopentyloxy-5-methyl-pyridin-3-yl)-2,6-difluoro-phenoxy]-butyric acid] the EC50 was less than 200 nM.
Molecule `CC(C)Oc1ncccc1-c1ccc(OCCCCC(=O)O)c(F)c1` [Example 264, 5-[2-fluoro-4-(2-isopropoxy-pyridin-3-yl)-phenoxy]-pentanoic acid] has an EC50 of 200 to 2000 nM.
Molecule `O=C(O)CCCOc1c(F)cc(-c2cccnc2NCC2CCOCC2)cc1F` [Example 112, 4-[2,6-difluoro-4-[2-(tetrahydropyran-4-ylmethylamino)-3-pyridyl]phenoxy]butanoic acid] has an EC50 greater than 20000 nM.
For `O=C(O)CCCOc1c(F)cc(-c2cccnc2OCCN2CC2)cc1F` [Example 218, 4-[4-[2-[2-(aziridin-1-yl)ethoxy]-3-pyridyl]-2,6-difluoro-phenoxy]butanoic acid], the EC50 was greater than 20000 nM.
In the case of `O=C(O)CCCCOc1c(F)cc(-c2cccnc2OC2CCOCC2)cc1F` [Example 241, 5-[2,6-difluoro-4-(2-tetrahydropyran-4-yloxy-3-pyridyl)phenoxy]pentanoic acid], the EC50 is reported as 200 to 2000 nM.
With `O=C(O)CCCSc1ccc(-c2cccc(SC3CCC3)n2)cc1F` [Example 169, 4-[4-(6-cyclobutylsulfanyl-pyridin-2-yl)-2-fluoro-phenylsulfanyl]-butyric acid] the EC50 was less than 200 nM.
In the case of `CCCNc1ccccc1-c1ccc(OCCCC(=O)O)cc1` [Example 86, 4-[4-[2-(propylamino)phenyl]phenoxy]butanoic acid], the EC50 is reported as 200 to 2000 nM.
Molecule `O=C(O)CCCCCOc1c(F)cc(-c2cccnc2SC2CCCC2)cc1F` [Example 275, 6-[4-(2-cyclopentylsulfanyl-3-pyridyl)-2,6-difluoro-phenoxy]hexanoic acid] has an EC50 of 200 to 2000 nM.
For `O=C(O)CCCOc1c(F)cc(-c2ccccc2Oc2ccccc2)cc1F` [Example 39, 4-(3,5-difluoro-2′-phenoxy-biphenyl-4-yloxy)-butyric acid], the EC50 was less than 200 nM.
Molecule `CC(C)COc1ncccc1-c1cc(F)c(OCCCC(=O)O)c(F)c1` [Example 230, 4-[2,6-difluoro-4-(2-isobutoxy-pyridin-3-yl)-phenoxy]-butyric acid] has an EC50 of less than 200 nM.
`O=C(O)CCCSc1ccc(-c2cccnc2OC2CCCC2)cc1` [Example 123, 4-[4-(2-cyclopentyloxy-pyridin-3-yl)-phenylsulfanyl]-butyric acid] was tested, and the EC50 was less than 200 nM.
`O=C(O)CCCOc1c(F)cc(-c2cc(Cl)ccc2NC2CCCC2)cc1F` [Example 95, 4-[4-[5-chloro-2-(cyclopentylamino)phenyl]-2,6-difluoro-phenoxy]butanoic acid] gave an EC50 of 200 to 2000 nM.
`CC(CCC(=O)O)Oc1c(F)cc(-c2cccc(OC3CCC3)n2)cc1F` (centres unmarked) [Example 29, 4-[4-[6-(cyclobutoxy)-2-pyridyl]-2,6-difluoro-phenoxy]pentanoic acid] gave an EC50 of less than 200 nM.
`CCCSc1ncccc1-c1ccc(OCCCC(=O)O)cc1` [Example 51, 4-[4-(2-propylsulfanyl-pyridin-3-yl)-phenoxy]-butyric acid] was tested, and the EC50 was less than 200 nM.
With `O=C(O)CCCOc1c(F)cc(-c2cccc(Oc3ccccc3)n2)cc1F` [Example 3, 4-[2,6-difluoro-4-(6-phenoxy-2-pyridyl)phenoxy]butyric acid] the EC50 was less than 200 nM.
Molecule `O=C(O)CCCOc1c(F)cc(-c2cccc(CC3CCCC3)c2)cc1F` [Example 98, 4-[4-[3-(cyclopentylmethyl)phenyl]-2,6-difluoro-phenoxy]butanoic acid] has an EC50 of 200 to 2000 nM.
Work on `O=C(O)CCCCOc1c(F)cc(-c2cccnc2OC2CCCC2)cc1F` [Example 232, 5-[4-(2-cyclopentyloxy-pyridin-3-yl)-2,6-difluoro-phenoxy]-pentanoic acid] yielded an EC50 of less than 200 nM.
Molecule `O=C(O)CCCOc1c(F)cc(-c2cccnc2OC2CCC(O)C2)cc1F` (centres unmarked) [Example 227, 4-{2,6-difluoro-4-[2-(3-hydroxy-cyclopentyloxy)-pyridin-3-yl]-phenoxy}-butyric acid] has an EC50 of 2000 to 20000 nM.

Source: patent publication US10221138B2, “Biaryl derivatives as GPR120 agonists” (LG CHEM, LTD., priority 2013, dated 2019)
